The text below walks through data of ChEMBL document CHEMBL6087460, “Generating a Peptide Library Using the Repeats of Amino Acid Scaffolds Created by Sliding the Framework of a 7-mer Human Chemerin Segment and Discovery of Potent Antibacterial and Antimycobacterial Peptides” (J Med Chem, 2025).

≈ marks a conversion by molar mass, not a printed value. Bounds are passed on as bounds.

In one data set the test system is Escherichia coli. In words: Antibacterial activity against Escherichia coli ATCC 25922 incubated for 16 to 18 hrs by broth dilution assay. Format: functional. Particulars: time 16-18 hrs. In general terms: Broth dilution looks for growth in wells or tubes with falling amounts of substance.
Data set [1] concerns Staphylococcus aureus. In words: Antibacterial activity against Staphylococcus aureus ATCC 25923 incubated for 16 to 18 hrs by broth dilution assay. Format: functional. Particulars: time 16-18 hrs.
A further data set has as its system Pseudomonas aeruginosa. In words: Antibacterial activity against Pseudomonas aeruginosa ATCC BAA-427 incubated for 16 to 18 hrs by broth dilution assay. To be noted: time 16-18 hrs. Format: functional.
The next data set concerns Klebsiella pneumoniae. In words: Antibacterial activity against Klebsiella pneumoniae ATCC 27736 incubated for 16 to 18 hrs by broth dilution assay. Format: functional. To be noted: time 16-18 hrs.
The test system of data set [2] is Staphylococcus aureus. In words: Antibacterial activity against methicillin-resistant Staphylococcus aureus 33591 incubated for 16 to 18 hrs by broth dilution assay. Particulars: time 16-18 hrs. Format: functional.
Another data set deals with Bacillus subtilis. In words: Antibacterial activity against Bacillus subtilis 6633 incubated for 16 to 18 hrs by broth dilution assay. Format: functional. Particulars: time 16-18 hrs.
The subject of data set [3] is Staphylococcus aureus. In words: Antibacterial activity against methicillin-resistant Staphylococcus aureus BAA-44 incubated for 16 to 18 hrs by broth dilution assay. To be noted: time 16-18 hrs. Format: functional.
Data set [4] can be described thus: Hemolytic activity in human RBC measured after 40 mins by absorbance based assay. Format: toxicity, cell-based, Erythrocyte. Particulars: human red blood cells.
The nature of data set [5]: Retention time of compound by RP-HPLC method. Format: physicochemical.
The nature of data set [6]: Hemolytic activity in human RBC at 100 uM measured after 40 mins by absorbance based assay relative to control. Format: toxicity, cell-based, Erythrocyte. To be noted: human red blood cells, read-out: Activity.

The term MIC denotes the smallest concentration in the dilution series that meets the test's criterion for growth inhibition. A high value points to a need for much substance. Consider `CC1(C)S[C@@H]2[C@H](NC(=O)[C@H](N)c3ccccc3)C(=O)N2[C@H]1C(=O)O` [AMPICILLIN], for which the minimum inhibitory concentration (MIC) against Escherichia coli was found to be 12.5 µM (≈ 4.37 µg/mL); in the data set on Staphylococcus aureus [1], 3.1 µM (≈ 1.08 µg/mL); against Pseudomonas aeruginosa, 25 µM (≈ 8.74 µg/mL); against Klebsiella pneumoniae, 100 µM (≈ 34.9 µg/mL); against Staphylococcus aureus [2], 12.5 µM (≈ 4.37 µg/mL); against Bacillus subtilis, 1.6 µM (≈ 0.559 µg/mL). Moreover, the MIC against Staphylococcus aureus [3] amounted to 25 µM (≈ 8.74 µg/mL).
In general, HC50 refers to the concentration giving 50% haemolysis. Low values mean stronger haemolysis, high ones weaker haemolysis. H-GRLGRLGRLGRL-OH: the MIC is 18.9 µM against Escherichia coli; 4.7 µM against Staphylococcus aureus [1]; 75.6 µM with Pseudomonas aeruginosa; above 151 µM with Klebsiella pneumoniae; 18.9 µM with Staphylococcus aureus [2]; 18.9 µM against Bacillus subtilis. Besides, in the data set with Staphylococcus aureus [3], it took 18.9 µM to inhibit growth (MIC). The same compound displayed an HC50 at 40 min in data set [4] of 2 mM. In addition, the Retention_time in [5] came to 20.87 min.
With H-GRLVGRLVGRLV-OH, the minimal inhibitory concentration (MIC) with Escherichia coli was 155 µM; in the data set with Staphylococcus aureus [1], above 155 µM; in the data set on Pseudomonas aeruginosa, 155 µM; in the data set on Klebsiella pneumoniae, 155 µM; with Staphylococcus aureus [2] it was above 155 µM; in the data set on Bacillus subtilis, above 155 µM. The MIC in the data set on Staphylococcus aureus [3] is above 155 µM. Further, the HC50 at 40 min in [4] was 2 mM. The Retention_time in data set [5] was determined as 13.4 min.
For the compound H-KVKVKVKVKV-OH, the minimum inhibitory concentration (MIC) against Escherichia coli stood at 21.7 µM; with Staphylococcus aureus [1], 21.7 µM; in the data set with Pseudomonas aeruginosa, 21.7 µM; against Klebsiella pneumoniae, 43.4 µM; in the data set with Staphylococcus aureus [2], 43.4 µM; against Bacillus subtilis it was 10.9 µM. Also, in the data set with Staphylococcus aureus [3], inhibition of growth (MIC) required 21.7 µM. Besides, the HC50 at 40 min in data set [4] was 0.283 mM. In addition, in data set [6], the hemolysis at 40 min, 100 µM turned out to be 18%. Besides, the Retention_time in data set [5] was 10.88 min.
On to H-KVKVKVKVKVKV-OH, for which the minimum inhibitory concentration (MIC) in the data set with Escherichia coli stood at 18.1 µM; with Staphylococcus aureus [1] it was 36.2 µM; against Pseudomonas aeruginosa, 36.2 µM; against Klebsiella pneumoniae, 72.4 µM; against Staphylococcus aureus [2] it was 36.2 µM; against Bacillus subtilis, 9.1 µM. 18.1 µM was the least that counted as inhibitory against Staphylococcus aureus [3] (MIC). The same compound displayed an HC50 at 40 min in [4] of 0.118 mM. Moreover, in data set [6], the hemolysis at 40 min, 100 µM stood at 42%. The compound also showed a Retention_time in data set [5] of 10.81 min.
Consider H-KVKVKVKVKVKVKV-OH, for which the MIC is 7.8 µM in the data set on Escherichia coli; 7.8 µM against Staphylococcus aureus [1]; 31.1 µM against Pseudomonas aeruginosa; 7.8 µM with Klebsiella pneumoniae; 15.5 µM in the data set with Staphylococcus aureus [2]; 3.8 µM against Bacillus subtilis. The MIC against Staphylococcus aureus [3] worked out at 15.5 µM. Also, the HC50 at 40 min in data set [4] is 0.062 mM. Besides, the hemolysis at 40 min, 100 µM in data set [6] is 80%. The Retention_time in data set [5] was 10.73 min.
As to H-KVLGKVLGKVLG-OH, the MIC in the data set with Escherichia coli, in the data set on Staphylococcus aureus [1], with Pseudomonas aeruginosa, against Klebsiella pneumoniae, against Staphylococcus aureus [2] and in the data set with Bacillus subtilis was above 165 µM throughout. In the data set with Staphylococcus aureus [3], the minimum inhibitory concentration (MIC) was above 165 µM. In data set [4], this compound returned an HC50 at 40 min of 2 mM. In addition, the Retention_time in data set [5] was determined as 15.26 min.
In the case of H-KVLGRKVLGR-OH, the minimum inhibitory concentration (MIC) is 178 µM in the data set with Escherichia coli; 178 µM in the data set with Staphylococcus aureus [1]; above 178 µM against Pseudomonas aeruginosa; above 178 µM in the data set with Klebsiella pneumoniae; above 178 µM in the data set with Staphylococcus aureus [2]; above 178 µM against Bacillus subtilis. The MIC against Staphylococcus aureus [3] is above 178 µM. Further, the concentration for 50% haemolysis (HC50) at 40 min in data set [4] worked out at 2 mM. The same compound displayed a Retention_time in [5] of 10.61 min.
Consider H-KVLGRKVLGRKVLGR-OH, for which the MIC was 29.8 µM against Escherichia coli; 29.8 µM with Staphylococcus aureus [1]; above 119 µM with Pseudomonas aeruginosa; above 119 µM against Klebsiella pneumoniae; above 119 µM in the data set with Staphylococcus aureus [2]; above 119 µM with Bacillus subtilis. In addition, the MIC in the data set with Staphylococcus aureus [3] is above 119 µM. In [4], this compound displayed an HC50 at 40 min of 2 mM. In data set [5], the Retention_time was 11.73 min.
Take H-KVLGRLKVLGRL-OH: the minimum inhibitory concentration (MIC) in the data set on Escherichia coli is 74 µM; with Staphylococcus aureus [1], above 147 µM; in the data set on Pseudomonas aeruginosa, above 147 µM; against Klebsiella pneumoniae, above 147 µM; in the data set with Staphylococcus aureus [2], above 147 µM; against Bacillus subtilis it was above 147 µM. Besides, in the data set with Staphylococcus aureus [3], the MIC was above 147 µM. Also, in data set [4], the HC50 at 40 min is 2 mM. In addition, the Retention_time in data set [5] came to 16.81 min.
For the compound H-LGRLGRLGRLGR-OH, the MIC is 15.5 µM with Escherichia coli; above 151 µM in the data set with Staphylococcus aureus [1]; above 151 µM in the data set on Pseudomonas aeruginosa; above 151 µM in the data set on Klebsiella pneumoniae; above 151 µM with Staphylococcus aureus [2]; 151 µM with Bacillus subtilis. Further, the minimal inhibitory concentration (MIC) in the data set on Staphylococcus aureus [3] was above 151 µM. The compound further gave a concentration for 50% haemolysis (HC50) at 40 min in data set [4] of 2 mM. Besides, in data set [5], the Retention_time was determined as 20.45 min.
With H-LGRLGRLGRLGRLGR-OH, the minimal inhibitory concentration (MIC) in the data set on Escherichia coli is 1.9 µM; in the data set with Staphylococcus aureus [1] it was 1.9 µM; with Pseudomonas aeruginosa, 60.6 µM; against Klebsiella pneumoniae, above 121 µM; against Staphylococcus aureus [2] it was above 121 µM; with Bacillus subtilis it was 30.3 µM. The compound further had an MIC with Staphylococcus aureus [3] of 60.6 µM. For the same compound, the HC50 at 40 min in data set [4] was 2 mM. In data set [5], this compound displayed a Retention_time of 16.23 min.
H-LGRLLGRLLGRLLGRL-OH: the MIC against Escherichia coli came to 1.8 µM; in the data set on Staphylococcus aureus [1] it was 1.8 µM; in the data set on Pseudomonas aeruginosa, 3.5 µM; against Klebsiella pneumoniae, 1.8 µM; in the data set on Staphylococcus aureus [2], 1.8 µM; with Bacillus subtilis, 1.8 µM. The same compound yielded an MIC against Staphylococcus aureus [3] of 1.8 µM. The HC50 at 40 min in data set [4] worked out at 0.051 mM. The hemolysis at 40 min, 100 µM in data set [6] stood at 95%. In [5], this compound yielded a Retention_time of 20.87 min.
As for H-LGRLVLGRLV-OH, the minimum inhibitory concentration (MIC) against Escherichia coli is 91.4 µM; with Staphylococcus aureus [1], 183 µM; with Pseudomonas aeruginosa, above 183 µM; against Klebsiella pneumoniae, above 183 µM; with Staphylococcus aureus [2], above 183 µM; in the data set with Bacillus subtilis, above 183 µM. The compound further had an MIC in the data set with Staphylococcus aureus [3] above 183 µM. Besides, in data set [4], the 50% haemolytic concentration (HC50) at 40 min worked out at 2 mM. Moreover, the Retention_time in data set [5] stood at 16.21 min.
On to H-LGRLVLGRLVLGRLV-OH, for which the minimum inhibitory concentration (MIC) against Escherichia coli is 7.6 µM; in the data set with Staphylococcus aureus [1], 15.3 µM; in the data set with Pseudomonas aeruginosa, above 122 µM; with Klebsiella pneumoniae, above 122 µM; against Staphylococcus aureus [2], above 122 µM; in the data set on Bacillus subtilis, above 122 µM. The compound also registered an MIC against Staphylococcus aureus [3] of 61.2 µM. The concentration for 50% haemolysis (HC50) at 40 min in [4] turned out to be 2 mM. Also, the Retention_time in data set [5] worked out at 18.77 min.
H-VLGRLVLGRL-OH: the MIC against Escherichia coli was 183 µM; with Staphylococcus aureus [1] it was 183 µM; in the data set with Pseudomonas aeruginosa, 183 µM; in the data set with Klebsiella pneumoniae it was 183 µM; in the data set on Staphylococcus aureus [2] it was above 183 µM; in the data set with Bacillus subtilis it was above 183 µM. In the data set on Staphylococcus aureus [3], this compound came in with a minimum inhibitory concentration (MIC) above 183 µM. The compound also had an HC50 at 40 min in [4] of 2 mM. This compound also yielded a Retention_time in [5] of 16.21 min.
Turning to H-VLGRLVLGRLVLGRL-OH, the minimum inhibitory concentration (MIC) was 7.6 µM in the data set on Escherichia coli; 7.6 µM against Staphylococcus aureus [1]; above 122 µM in the data set on Pseudomonas aeruginosa; above 122 µM in the data set with Klebsiella pneumoniae; 122 µM against Staphylococcus aureus [2]; above 122 µM in the data set with Bacillus subtilis. This compound also showed an MIC in the data set with Staphylococcus aureus [3] of 61.2 µM. The same compound came in with a concentration for 50% haemolysis (HC50) at 40 min in data set [4] of 2 mM. The Retention_time in data set [5] stood at 19.07 min.
For the compound H-VLGRLVVLGRLV-OH, the MIC in the data set on Escherichia coli is 77.4 µM; against Staphylococcus aureus [1], above 155 µM; against Pseudomonas aeruginosa it was above 155 µM; against Klebsiella pneumoniae, above 155 µM; in the data set on Staphylococcus aureus [2], above 155 µM; against Bacillus subtilis it was above 155 µM. The compound further returned a minimal inhibitory concentration (MIC) with Staphylococcus aureus [3] above 155 µM. For the same compound, in data set [4], the HC50 at 40 min was 2 mM. This compound also displayed a Retention_time in data set [5] of 17.91 min.
With H-VLGRVLGRVLGR-OH, the minimal inhibitory concentration (MIC) against Escherichia coli, against Staphylococcus aureus [1], against Pseudomonas aeruginosa, against Klebsiella pneumoniae, with Staphylococcus aureus [2] and with Bacillus subtilis was above 155 µM in each case. In addition, the MIC against Staphylococcus aureus [3] was above 155 µM. The compound also showed an HC50 at 40 min in [4] of 2 mM. In [5], this compound gave a Retention_time of 15.4 min.
